Assay results as given in patent US12281079B2, “Quinoline derivatives, processes for their preparation and uses thereof for the treatment of cancer” (Lead Discovery Center GmbH, priority 2019, dated 2025).
pIC50: −log10 of the molar value.

What was measured:
[1] = molecular target: mitochondrial RNA polymerase (POLRMT) (Mus musculus, UniProt Q8BKF1); test: Homogeneous TR-FRET assay for mitochondrial transcription activity; assay type: biochemical; settings: homogeneous TR-FRET assay according to Example 4
mitochondrial RNA polymerase (POLRMT), sequence (Q8BKF1 42-1207): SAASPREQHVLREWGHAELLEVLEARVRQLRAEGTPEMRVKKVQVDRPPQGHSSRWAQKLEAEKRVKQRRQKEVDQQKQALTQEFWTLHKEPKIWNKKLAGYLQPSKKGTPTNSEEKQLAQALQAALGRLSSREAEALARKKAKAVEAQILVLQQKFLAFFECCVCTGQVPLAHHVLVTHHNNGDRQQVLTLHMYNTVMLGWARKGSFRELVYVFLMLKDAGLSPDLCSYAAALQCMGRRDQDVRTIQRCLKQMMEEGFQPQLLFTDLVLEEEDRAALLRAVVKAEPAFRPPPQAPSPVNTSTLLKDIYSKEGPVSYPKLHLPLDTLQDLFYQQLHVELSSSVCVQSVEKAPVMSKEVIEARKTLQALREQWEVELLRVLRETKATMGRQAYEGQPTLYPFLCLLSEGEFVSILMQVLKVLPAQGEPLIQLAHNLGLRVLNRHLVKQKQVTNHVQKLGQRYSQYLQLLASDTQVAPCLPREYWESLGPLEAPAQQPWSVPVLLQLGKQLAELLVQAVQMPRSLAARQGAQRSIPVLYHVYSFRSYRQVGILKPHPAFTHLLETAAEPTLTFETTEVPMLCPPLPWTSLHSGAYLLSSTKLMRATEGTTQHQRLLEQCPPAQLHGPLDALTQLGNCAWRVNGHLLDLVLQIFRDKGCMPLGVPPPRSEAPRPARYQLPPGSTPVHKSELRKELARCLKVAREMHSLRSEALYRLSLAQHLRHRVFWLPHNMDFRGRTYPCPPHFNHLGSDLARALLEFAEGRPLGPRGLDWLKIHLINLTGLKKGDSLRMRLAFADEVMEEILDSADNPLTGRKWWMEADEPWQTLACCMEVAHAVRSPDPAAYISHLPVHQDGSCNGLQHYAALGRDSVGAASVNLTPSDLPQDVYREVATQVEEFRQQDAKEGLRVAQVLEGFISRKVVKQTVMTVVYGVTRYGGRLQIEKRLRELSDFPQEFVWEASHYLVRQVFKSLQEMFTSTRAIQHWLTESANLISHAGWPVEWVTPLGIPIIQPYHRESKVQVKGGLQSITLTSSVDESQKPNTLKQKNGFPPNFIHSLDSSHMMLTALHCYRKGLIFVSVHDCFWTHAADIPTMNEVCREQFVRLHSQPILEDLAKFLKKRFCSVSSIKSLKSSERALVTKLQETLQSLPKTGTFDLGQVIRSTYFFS
In short: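 Read-out is TR-FRET (ex 340, em 665 nm) from two adjacent labelled DNA probes annealing to the 407 bp transcript after EDTA/700 mM NaCl stop. Reaction: murine POLRMT, TFAM, TFB2M and LSP plasmid template, compound 10 μM or serial dilution, 10 min rt preincubation, 500 μM each nucleotide, 2 h rt.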

[2] = test system: mitochondrial transcription (7S RNA) in HeLa cells; test: Quantitative real time-PCR assay of inhibition of mitochondrial transcription (7S RNA) in HeLa cells; assay type: cell-based; settings: Homo sapiens, 4 h compound incubation, according to Example 5, read-out: cellular qPCR assay
In short: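 HeLa cells were exposed to compound dilution series or DMSO for 4 h, then RNA was extracted, normalized and reverse-transcribed. TaqMan qRT-PCR measured short-lived 7S RNA, with POLRMT as nuclear-transcription readout and TBP as housekeeping gene. Biological triplicates were analyzed by ΔΔCt and reported as Rq % (2−ΔΔCt).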

For `C[C@@H](Oc1ccc2c(-c3ccc(F)cc3Cl)ccnc2c1)C(=O)N1CCCC2(CC2C(=O)O)C1` (stereo partly drawn) [Compound 193, 5-[rac-(2R)-2-[[4-(2-chloro-4-fluoro-phenyl)-7-quinolyl]oxy]propanoyl]-5-azaspiro[2.5]octane-2-carboxylic acid], the pIC50 [1] was 7.00 to 7.70 and the pIC50 [2] was 7.30 to 8.00.
`C[C@@H](Oc1ccc2c(-c3c(Cl)cc(F)cc3Cl)ccnc2c1)C(=O)N1CCCC(C(C)(C)C(=O)O)C1` (stereo partly drawn) [Compound 195, 2-methyl-2-[1-[rac-(2R)-2-[[4-(2,6-dichloro-4-fluoro-phenyl)-7-quinolyl]oxy]propanoyl]-3-piperidyl]propanoic acid] gave a pIC50 [1] of 7.00 to 7.70 and a pIC50 [2] of 7.30 to 8.00.
With `C[C@@H](Oc1ccc2c(-c3ccc(F)cc3Cl)ccnc2c1)C(=O)N1CCCC(C(C)(C)C(=O)O)C1` (stereo partly drawn) [Compound 197, 2-methyl-2-[1-[rac-(2R)-2-[[4-(2-chloro-4-fluoro-phenyl)-7-quinolyl]oxy]propanoyl]-3-piperidyl]propanoic acid] the pIC50 [1] was 7.00 to 7.70 and the pIC50 [2] was 7.30 to 8.00.
`C[C@@H](Oc1ccc2c(-c3ccc(F)cc3Cl)ccnc2c1)C(=O)N1CCC[C@@](C)(C(=O)O)C1` [Compound 198, (3R)-1-[(2R)-2-[[4-(2-chloro-4-fluoro-phenyl)-7-quinolyl]oxy]propanoyl]-3-methyl-piperidine-3-carboxylic acid] was tested, and the pIC50 [1] was 7.00 to 7.70 and the pIC50 [2] was > 8.00.
In the case of `C[C@@H](Oc1ccc2c(-c3c(Cl)cc(F)cc3Cl)ccnc2c1)C(=O)N1CCCC[C@@H]1C` [Compound 199, (2R)-2-[[4-(2,6-dichloro-4-fluoro-phenyl)-7-quinolyl]oxy]-1-[(2S)-2-methyl-1-piperidyl]propan-1-one], the pIC50 [1] was 7.00 to 7.70 and the pIC50 [2] was > 8.00.
Work on `C[C@@H](Oc1ccc2c(-c3c(Cl)cc(F)cc3Cl)ccnc2c1)C(=O)N1CCOCC1` [Compound 201, (2R)-2-[[4-(2,6-dichloro-4-fluoro-phenyl)-7-quinolyl]oxy]-1-morpholino-propan-1-one] yielded a pIC50 [1] of 6.00 to 7.00 and a pIC50 [2] of 7.30 to 8.00.
With `C[C@@H](Oc1ccc2c(-c3c(Cl)cc(F)cc3Cl)ccnc2c1)C(=O)N1CCC2(CCNC2=O)CC1` [Compound 202, 8-[(2R)-2-[[4-(2,6-dichloro-4-fluoro-phenyl)-7-quinolyl]oxy]propanoyl]-2,8-diazaspiro[4.5]decan-1-one] the pIC50 [1] was 6.00 to 7.00 and the pIC50 [2] was 7.30 to 8.00.
In the case of `C[C@@H]1CCCCN1C(=O)[C@@H](C)Oc1ccc2c(-c3c(Cl)cc(F)cc3Cl)ccnc2c1` [Compound 204, (2R)-2-[[4-(2,6-dichloro-4-fluoro-phenyl)-7-quinolyl]oxy]-1-[(2R)-2-methyl-1-piperidyl]propan-1-one], the pIC50 [1] was 6.00 to 7.00 and the pIC50 [2] was 7.30 to 8.00.
`C[C@@H](Oc1ccc2c(-c3ccc(F)cc3Cl)ccnc2c1)C(=O)N1CCC2(CCNC2=O)CC1` [Compound 205, 8-[(2R)-2-[[4-(2-chloro-4-fluoro-phenyl)-7-quinolyl]oxy]propanoyl]-2,8-diazaspiro[4.5]decan-1-one] showed a pIC50 [1] of 6.00 to 7.00 and a pIC50 [2] of 7.30 to 8.00.
`C[C@@H](Oc1ccc2c(-c3ccc(F)cc3Cl)ccnc2c1)C(=O)N1CCOCC1` [Compound 206, (2R)-2-[[4-(2-chloro-4-fluoro-phenyl)-7-quinolyl]oxy]-1-morpholino-propan-1-one] showed a pIC50 [1] of 6.00 to 7.00 and a pIC50 [2] of 7.30 to 8.00.
In the case of `C[C@@H](Oc1ccc2c(-c3ccc(F)cc3Cl)ccnc2c1)C(=O)N1CCCC(C2(O)CC2)C1` (stereo partly drawn) [Compound 207, (2R)-2-[[4-(2-chloro-4-fluoro-phenyl)-7-quinolyl]oxy]-1-[3-(1-hydroxycyclopropyl)-1-piperidyl]propan-1-one], the pIC50 [1] was 6.00 to 7.00 and the pIC50 [2] was > 8.00.
Work on `C[C@@H](Oc1ccc2c(-c3c(Cl)cc(F)cc3Cl)ccnc2c1)C(=O)N1CCC2(CC1)COC2` [Compound 208, (2R)-2-[[4-(2,6-dichloro-4-fluoro-phenyl)-7-quinolyl]oxy]-1-(2-oxa-7-azaspiro[3.5]nonan-7-yl)propan-1-one] yielded a pIC50 [1] of 6.00 to 7.00 and a pIC50 [2] of 7.30 to 8.00.
`CC(=O)N(O)[C@H]1CCCN(C(=O)[C@@H](C)Oc2ccc3c(-c4ccc(F)cc4Cl)ccnc3c2)C1` [Compound 209, N-hydroxy-N-[(3S)-1-[(2R)-2-[[4-(2-chloro-4-fluoro-phenyl)-7-quinolyl]oxy]propanoyl]-3-piperidyl]acetamide] showed a pIC50 [1] of 6.00 to 7.00 and a pIC50 [2] of 7.30 to 8.00.
`C[C@@H](Oc1ccc2c(-c3ccc(F)cc3Cl)ccnc2c1)C(=O)N1CCC2(CC1)COC2` [Compound 210, (2R)-2-[[4-(2-chloro-4-fluoro-phenyl)-7-quinolyl]oxy]-1-(2-oxa-7-azaspiro[3.5]nonan-7-yl)propan-1-one] gave a pIC50 [1] of 6.00 to 7.00 and a pIC50 [2] of 7.30 to 8.00.
With `CC1CCCC(C)N1C(=O)[C@@H](C)Oc1ccc2c(-c3ccc(F)cc3Cl)ccnc2c1` (stereo partly drawn) [Compound 211, (2R)-2-[[4-(2-chloro-4-fluoro-phenyl)-7-quinolyl]oxy]-1-(2,6-dimethyl-1-piperidyl)propan-1-one] the pIC50 [1] was 6.00 to 7.00 and the pIC50 [2] was 7.30 to 8.00.
In the case of `C[C@@H](Oc1ccc2c(-c3ccc(F)cc3Cl)ccnc2c1)C(=O)N1CCCC2(COC2)C1` [Compound 212, (2R)-2-[[4-(2-chloro-4-fluoro-phenyl)-7-quinolyl]oxy]-1-(2-oxa-8-azaspiro[3.5]nonan-8-yl)propan-1-one], the pIC50 [1] was 6.00 to 7.00 and the pIC50 [2] was > 8.00.
In the case of `C[C@@H](Oc1ccc2c(-c3ccc(F)cc3Cl)ccnc2c1)C(=O)N1CCC2(COC2)C1` [Compound 213, (2R)-2-[[4-(2-chloro-4-fluoro-phenyl)-7-quinolyl]oxy]-1-(2-oxa-7-azaspiro[3.4]octan-7-yl)propan-1-one], the pIC50 [1] was 6.00 to 7.00 and the pIC50 [2] was 6.30 to 7.30.
With `C[C@@H](Oc1ccc2c(-c3ccc(F)cc3Cl)ccnc2c1)C(=O)N1CC[C@@H](NC(=O)NC(C)(C)C)C1` [Compound 214, 1-tertbutyl-3-[(3R)-1-[(2R)-2-[[4-(2-chloro-4-fluoro-phenyl)-7-quinolyl]oxy]propanoyl]pyrrolidin-3-yl]urea] the pIC50 [1] was 6.00 to 7.00 and the pIC50 [2] was 6.30 to 7.30.
`C[C@@H](Oc1ccc2c(-c3ccc(F)cc3Cl)ccnc2c1)C(=O)N1CC(C)(C)NC(C)(C)C1` [Compound 215, (2R)-2-[[4-(2-chloro-4-fluoro-phenyl)-7-quinolyl]oxy]-1-(3,3,5,5-tetramethylpiperazin-1-yl)propan-1-one] was tested, and the pIC50 [1] was 6.00 to 7.00 and the pIC50 [2] was 6.30 to 7.30.
In the case of `CC1CN(C(=O)[C@@H](C)Oc2ccc3c(-c4ccc(F)cc4Cl)ccnc3c2)CC(C)N1` (stereo partly drawn) [Compound 216, (2R)-2-[[4-(2-chloro-4-fluoro-phenyl)-7-quinolyl]oxy]-1-(3,5-dimethylpiperazin-1-yl)propan-1-one], the pIC50 [1] was 6.00 to 7.00 and the pIC50 [2] was 6.30 to 7.30.
`C[C@@H](Oc1ccc2c(-c3ccc(F)cc3Cl)ccnc2c1)C(=O)N1CCC=C(C(=O)O)C1` [Compound 219, 1-[(2R)-2-[[4-(2-chloro-4-fluoro-phenyl)-7-quinolyl]oxy]propanoyl]-3,6-dihydro-2H-pyridine-5-carboxylic acid] showed a pIC50 [1] of 7.00 to 7.70 and a pIC50 [2] of 6.30 to 7.30.
`C[C@@H](Oc1ccc2c(-c3c(Cl)cc(F)cc3Cl)ccnc2n1)C(=O)N1CCC[C@H](CC(=O)O)C1` [Compound 220, 2-[(3R)-1-[(2R)-2-[[5-(2,6-dichloro-4-fluoro-phenyl)-1,8-naphthyridin-2-yl]oxy]propanoyl]-3-piperidyl]acetic acid] was tested, and the pIC50 [1] was 7.00 to 7.70 and the pIC50 [2] was > 8.00.
In the case of `Cc1cc(F)cc(C)c1-c1ccnc2nc(O[C@H](C)C(=O)N3CCC[C@H](CC(=O)O)C3)ccc12` [Compound 221, 2-[(3R)-1-[(2R)-2-[[5-(4-fluoro-2,6-dimethyl-phenyl)-1,8-naphthyridin-2-yl]oxy]propanoyl]-3-piperidyl]acetic acid], the pIC50 [1] was > 7.70 and the pIC50 [2] was > 8.00.
